According to US20020037844A1, “SYNTHETIC PEPTIDE FOR TREATMENT OF AUTOIMMUNE ARTHRITIS” (priority 1993, published 2002):

What was measured:
CII-primed, bulk T cells = assay: Inhibition of antigen presentation to CII-primed bulk T cells (co-culture); format: cell-based, DBA/1 mice; conditions: analog co-cultured with CII 245-270 or native CII at various ratios; FIG. 2
Method: T cell stimulation assays were performed in 96 well plates and the degree of stimulation was quantitated by measurements of γ-IFN production. Myers, L. K., K. Terato, J. M. Seyer, J. M. Stuart, and A. H. Kang, 1992, Characterization of a Tolerogenic T Cell Epitope of Type II Collagen and its Relevance to Collagen-Induced Arthritis. J. Immunol. 149:1439. The disclosure of this article is incorporated by reference. Spleens and lymph nodes from mice immunized with CII 14 to 21 days prior were individually minced into single cell suspensions in Hank's Balanced Salt Solution (BSS) and washed 3 times. […] Supernatants were collected from 72 to 120 hours later and either […] analyzed for γ-IFN production immediately or stored at −70° C. prior to analysis. Quantitative measurement of murine gamma interferon was done using a solid-phase enzyme-linked immunosorbent assay (Amgen Biologicals, Thousand Oaks, Calif.). […] The absorbance was measured at 405 nm with a spectrophotometer, and a standard curve was obtained by plotting the absorbance versus the corresponding concentration of the standards. Units of γ-interferon were calculated based on NIH standard number Gg02-901-533. […]

[1] = system: collagen induced arthritis (CIA) in DBA/1 mice; assay: Collagen induced arthritis, simultaneous immunization with CII and peptide; format: in vivo
antibodies to CII = assay: Serum antibodies to CII by ELISA in neonatally treated mice; format: in vivo; conditions: 100 μg antigen in IFA intraperitoneally within 24 hours of birth; serum four weeks after immunization; mean titer
Method: Mice were bled at four weeks after immunization and the serum was tested for antibodies reactive with type II collagen by enzyme-linked immunoassay (ELISA) described in Stuart, J. M., A. S. Townes, and A. H. Kang. 1982. Nature and Specificity of the Immune Response to Collagen in Type II Collagen-Induced Arthritis in Mice, J. Clin. Invest. 69:673. The disclosure of this article is incorporated by reference An anti-CII serum standard was used in each assay. A standard curve was derived by computer analysis using a 4 parameter logistic curve. Results are reported as units of activity, derived by comparison of test sera with the curve derived from the anti-CII standard which was arbitrarily defined as having 50 units of activity. Sera from mice were tested individually, and means were calculated for each experimental group.
The foregoing data support the hypothesis that analog peptide CII 245-270[s260, 261, 263] competes for binding to I-A^q. […] Synthetic peptides were solubilized directly in phosphate buffered saline (PBS) at a concentration of 1 mg/ml. Neonatal mice were tolerized using a protocol described by Gammon et al.^21 in which antigen emulsified with incomplete Freund's adjuvant was injected intraperitoneally. Gammon, Dunn, Shastri, Oki, Wilbur, Sercarz, 1986, Neonatal T Cell Tolerance to Minimal Immunogenic Peptides is Caused by Clonal Inactivation, Nature (Lond) 319:413. […]

CII-primed T cells = assay: T cell stimulation assay, γ-IFN production by CII-primed spleen and lymph node cells; format: cell-based, mice; conditions: CII-primed T cells cultured with 100 μm of antigen; FIG. 1
Method: Nowarck H., E. Hahn, R. Timple, 1976, “Requirements for T Cells in the Antibody Response of Mice to Calf Skin Collagen,” J. Immunol. 30:29. Each peptide was cultured with pooled spleen and lymph node cells from CII-immunized mice, and culture supernatant fluids were tested for the presence of γ-interferon as an indicator of T cell stimulation. T cell hybridomas were established by polyethylene glycol-induced fusion of lymph node cells with the T cell receptor α^−/β^−thymoma line, BW5147. White, M., M. Blackman, J. Bill, J. Kappler, P. Marrack, D. P. Gold, and W. Born, 1989, Two Better Cell Lines for Making Hybridomas Expressing Specific T Cell Receptors. J. Immunol. 143:1822. […]
T cell stimulation assays were performed in 96 well plates and the degree of stimulation was quantitated by measurements of γ-IFN production. […] Supernatants were collected from 72 to 120 hours later and either […] analyzed for γ-IFN production immediately or stored at −70° C. prior to analysis. Quantitative measurement of murine gamma interferon was done using a solid-phase enzyme-linked immunosorbent assay (Amgen Biologicals, Thousand Oaks, Calif.). […] The absorbance was measured at 405 nm with a spectrophotometer, and a standard curve was obtained by plotting the absorbance versus the corresponding concentration of the standards. Units of γ-interferon were calculated based on NIH standard number Gg02-901-533. […]

## Pro - Thr - Gly - Pro - Leu - Gly - Pro - Lys - Gly - Gln - Thr - Gly - Glx - Leu - Gly - Ala - 4Hyp - Gly - Asn - Lys - Gly - Glx - Gln - Gly - Pro - Lys [CII 245-270 [s260, 261, 263], analog of CII 245-270 with alanine at 260, hydroxyproline at 261, asparagine at 263]
CII-primed, bulk T cells
  T cell responses to CII 245-270 and CII: significantly decreased responses to both CII 245-270 and CII in a dose dependent manner
[1]; co-immunized with CII at various molar ratios
  Incidence of arthritis and number of arthritic limbs, in words: dose-dependent decrease
[1]; co-injected with native CII, molar ratio CII:peptide 1:480
  Development / incidence of arthritis, in words: arthritis did not develop
Antibodies to CII
  Antibodies to CII: 55.6 ± 19
CII-primed T cells
  T cell stimulation (γ-interferon) compared to the wild type peptide CII 245-270: did not respond
